Test results published in patent US20150238446A1, “NEW TREATMENT OF FISH WITH A NANOSUS PENS ION OF LUFENURON OR HEXAFLUMURON” (Novartis AG, priority 2012, published 2015).

Experiments:
[1] = cited from earlier work
[2] = system: sea lice; settings: cited from earlier work; for duration of activity against sea lice: oily injectable formulations, in particular with a vaccine against furunculosis (WO99/063824)
[3] = Stability testing of oily lufenuron or hexaflumuron formulations; type: physicochemical; settings: in organic solvents/media
Text: WO99/063824 discloses the use of hexaflumuron and lufenuron, both members of the chemical class of benzoylureas, in the control of sea lice infestations on fish. Hexaflumurone is applied to the fish orally, via bath treatment or via injection, lufenuron is proposed exclusively for injection. Oily injectable formulations of the two active ingredients, in particular those comprising, in addition, a vaccine against furunculosis, show activity against sea lice for 128 days or in case of hexaflumuron even longer. […] The resulting low shelf life make them unsuited for commercial use. […] In addition, as both hexaflumuron and lufenuron have a strong tendency to aggregate and form sediments in an aqueous environment, the handling of water-based injectables is difficult and cumbersome. So it is not surprising that no commercial lufenuron or hexaflumuron sea lice product has made it to the market until now.

[4] = system: L. salmonis; assay: In vivo test in Atlantic salmon, natural sea lice infestation, pre-adult and adult count; settings: nanosuspension injected
Experimental: Three groups of 150 salmon (Atlantic Salmon, S. salar) of an average weight 200 g were injected with an amount of the above nanosuspension (a) equivalent to 25 mg (cage 1), 50 mg (cage 2) or 75 mg lufenuron per kg salmon (cage 3). A fourth cage containing 150 salmon of average weight 200 g was added to the study as a non-treated control group.
After treatment, the fish were exposed to natural sea lice infestation for a period of 8 months. During the study the water temperature varied between 4 and 12° C. Sea louse numbers were assessed on a monthly basis until month 8. Counts were conducted on 10 fish at each sampling occasion. The numbers of pre-adults and adult L. salmonis were recorded for each fish. Efficacy was calculated using the formula:
% Efficacy=100−(100×mean of treatment group/mean of control).

## O=C(NC(=O)c1c(F)cccc1F)Nc1cc(Cl)c(OC(F)(F)C(F)F)c(Cl)c1 [hexaflumuron, 1-[3,5-dichloro-4-(1,1,2,2-tetrafluoroethoxyl)phenyl]-3-(2,6-difluorobenzoyl)urea]
[1]
  water-solubility: ≤ 0.027 µg/mL
[2]; hexaflumuron containing aqueous suspension (WO99/063824)
  performance in vivo against sea lice: poor performance
[2]
  duration of activity against sea lice: > 128 days
[3]
  chemical stability of the active ingredient: chemically instable

## O=C(NC(=O)c1c(F)cccc1F)Nc1cc(Cl)c(OC(F)(F)C(F)C(F)(F)F)cc1Cl (centres unmarked) [lufenuron, N-{[2,5-Dichlor-4-(1,1,2,3,3,3-hexafluorpropoxyl)phenyl]carbamoyl}-2,6-difluorbenzamid]
[1]
  water-solubility: ≤ 0.06 µg/mL
[4]; 25 mg/kg lufenuron, 1 month
  % efficacy pre-adult and adult count: 100%
[4]; 25 mg/kg lufenuron, 2 month
  % efficacy pre-adult and adult count: 95%
[4]; 25 mg/kg lufenuron, 3 month
  % efficacy pre-adult and adult count: 100%
[4]; 25 mg/kg lufenuron, 4 month
  % efficacy pre-adult and adult count: 96%
[4]; 25 mg/kg lufenuron, 5 month
  % efficacy pre-adult and adult count: 100%
[4]; 25 mg/kg lufenuron, 6 month
  % efficacy pre-adult and adult count: 81%
[4]; 25 mg/kg
  duration of complete protection of the fish against sea lice infestation: at least 5 month
[4]; 50 mg/kg fish, until the end of the study
  duration of complete protection of the fish against sea lice infestation: 8 month
[4]; 50 mg/kg lufenuron, 1 month
  % efficacy pre-adult and adult count: 90%
[4]; 50 mg/kg lufenuron, 2 month
  % efficacy pre-adult and adult count: 100%
[4]; 50 mg/kg lufenuron, 3 month
  % efficacy pre-adult and adult count: 100%
[4]; 50 mg/kg lufenuron, 4 month
  % efficacy pre-adult and adult count: 100%
[4]; 50 mg/kg lufenuron, 5 month
  % efficacy pre-adult and adult count: 97%
[4]; 50 mg/kg lufenuron, 6 month
  % efficacy pre-adult and adult count: 96%
[4]; 50 mg/kg lufenuron, 7 month
  % efficacy pre-adult and adult count: 98%
[4]; 50 mg/kg lufenuron, 8 month
  % efficacy pre-adult and adult count: 98%
[4]; 75 mg/kg lufenuron, 1 month
  % efficacy pre-adult and adult count: 100%
[4]; 75 mg/kg lufenuron, 2 month
  % efficacy pre-adult and adult count: 100%
[4]; 75 mg/kg lufenuron, 3 month
  % efficacy pre-adult and adult count: 100%
[4]; 75 mg/kg lufenuron, 4 month
  % efficacy pre-adult and adult count: 96%
[4]; 75 mg/kg lufenuron, 5 month
  % efficacy pre-adult and adult count: 100%
[4]; 75 mg/kg lufenuron, 6 month
  % efficacy pre-adult and adult count: 100%
[4]; 75 mg/kg lufenuron, 7 month
  % efficacy pre-adult and adult count: 98%
[4]; 75 mg/kg lufenuron, 8 month
  % efficacy pre-adult and adult count: 100%
[4]; 75 mg/kg, until the end of the study
  duration of complete protection of the fish against sea lice infestation: 8 month
[2]
  duration of activity against sea lice: 128 days
[3]
  chemical stability of the active ingredient: chemically instable
